Columns and labels:
LPX [1] = target: T1, LPX (Bos taurus, UniProt P80025); test: LPX-mediated oxidative turnover of DMMBI and hydroperoxide; type: biochemical, bovine
T1 construct: purchased Sigma Chemical Company
Source text: (§1) Materials used in the examples below were obtained from the following sources. Bovine LPX, bovine liver catalase, glucose oxidase, 30% hydrogen peroxide, glucose, guaiacol, ABTS and deuterium oxide were purchased from Sigma Chemical Company. Selenium dioxide, MBI ^13 CH3 I and PBA were purchased from Aldrich Chemical Company and PBA was purified as previously described by Fieset et al., Reagents for Organic Synthesis, Vol. I, pp.135-139, John Wiley and Sons, N.Y. (1967). LPX purity was checked by PAGE, as described by Doerge, D.R., et al. in, Biochem. Pharmacol., Vol.36, pp.972-974 (1986). TPX was purified from hog thyroids obtained from a local slaughterhouse by published procedures. Doerge & Takazowa, Chemical Research in Toxicology, Vol. 3, pp. 98-101 (1990). TPX purity was determined by LC and its concentration determined spectophotometrically. Hydroperoxide concentrations were determined by iodometric titration, as described by Kolthoff, et al., in "Quantitative Chemical Analysis", Macmillan, London, pp.842-860 (1969). MMBI, and BI were synthesized by published procedures as described by Doerge, D.R., Biochem, Vol. 27, pp. 3697-3700 (1988) and were recrystallized from aqueous ethanol. MeBI was purified by distillation and DMeBI^+ was synthesized and purified by recrystallization from ethyl acetate/methanol. 1-^13 C-MMBI was synthesized from ^13 CH3 I according to the procedure disclosed by Doerge, D.R., in, J. Lab. Comp. and Radiopharm., Vol.25, pp.985-990 (1988). PPHP and PPA were prepared, purified and analyzed as previously described by Doerge, Biochem, Vol.27, p.11 (1988). The methyl ester of 1-methyl-benzimidazole-2-sulfinic acid was prepared by addition of hydrogen peroxide (5 equivalents of a 10 M solution) to MMBI (0.1 M) in methanol. The products, MeBI and the ester, were obtained following preparative TLC on silica (Uniplate, Analtech Co., Newark, DL) using 5% methanol/chloroform as eluant.
The distinct methyl and aromatic proton resonances of DMMBI and DMeBI^+ in the ^1 H-NMR spectrum provide a sensitive method to detect enzymatic transformation of DMMBI. DMMBI (100 μM) was incubated with LPX (50 μM), iodide ion (5 mM) and hydrogen peroxide (300 μM) in 10 mls of 0.01 M phosphate buffer solution, pH 7.0. The solution was incubated at 25° C. for 1 min followed by addition of catalase. The sample was then lyophilized and analyzed by ^1 H-NMR. The solids were dissolved in 1 ml D2 O and lyophilized again. Proton-deuterium exchange was repeated twice more and the solids were dissolved in 0.5 ml D2 O containing DSS. The HOD peak was suppressed in a one pulse presaturation experiment where the HOD peak was irradiated for 2 sec prior to acquisition of sample resonances. The ^1 H-NMR spectra of DMeBI^+ and DMMBI were similarly recorded in D2 O.
PPHP is a chromophoric hydroperoxide interchangeable with hydrogen peroxide in many peroxidase-catalyzed reactions. LPX-catalyzed turnover of PPHP gives PPA, the corresponding alcohol, which can be quantitated by HPLC. The use of PPHP permits a direct correlation of LPX-catalyzed substrate consumption and product formation with actual hydroperoxide turnover.

[2] = chemical oxidation stoichiometry of thiones; type: physicochemical
Protocol: Oxidation stoichiometries were determined for the thione compounds MBI, MMBI and DMMBI by incubating the thiones with varying amounts of PBA (0-250μM). The rapid reaction (t1/2 <10 s at 25° C.) of benzimidazole-2-thiones with PBA in methanol provided a convenient method for determining oxidation stoichiometry.
Oxidation stoichiometries were determined spectrophoto, metrically, using a Hewlett Packard 8452A diode array spectrophotometer, by measuring thione concentration at 305 nm as a function of PBA concentration. Hydroperoxide content was determined iodometrically. Stoichiometries of substrate consumption/product formation were also determined by addition of limiting amounts of PBA to 100 μM MBI or MMBI in 50% methanol/pH 7 phosphate. The disappearance of thione and the production of BI, MeBI and bisulfite ion was determined after one hour at 25° C. The production of bisulfite ion was measured […]. The production of sulfate ion was determined by ion chromatography using a AS4A column (Dionex Co., Sunnyvale, CA) with a Dionex Gradient Pump Module and a Dionex CDM II conductivity detector equipped with an AMMS suppressor using 3 mM carbonate/bicarbonate buffer pH 10 as eluant at 2.0 ml/min. Reaction products were also monitored by ^1 H NMR performed at 300 MHz using a Nicolet NT300 or General Electric QE300 spectrometer DSS as a reference.

[3] = kinetics of thione oxygenation by hydrogen peroxide/TFA; type: physicochemical; details: thione 25 μM, H2O2 34 mM, TFA 163 mM in methanol, 25° C.; relative to DMMBI
Protocol: The kinetics of thione oxygenation were determined for MBI, MMBI and DMMBI. Oxygenation by hydrogen peroxide/TFA was measured spectrophotometrically (305 nm) at 25° C. by addition of thione (final concentration 25 μM) to hydrogen peroxide (34 mM) and TFA (163 mM) in methanol.

LPX and TPX = test: suicide inhibition of peroxidases (summary statements); type: biochemical
LPX [4] = target: T1, LPX; test: LPX suicide inactivation kinetics; type: biochemical, bovine; details: presence of hydrogen peroxide
Source text: as §1
Inhibition of LPX activity by thiones was determined from the kinetics of iodide ion, guaiacol or ABTS oxidation assays conducted at 25° C. Kinetic parameters of suicide inactivation were determined as previously described. Doerge, Biochem. Vol.27, pp.3697-3700 (1988).

[5] = PPHP-supported LPX-catalyzed iodination

turnover events without LPX inactivation (LPX [1]; LPX, hydrogen peroxide and iodide ion): > 300 turnover events
moles of PPA formed per mole of DMMBI consumed (LPX [1]; [5]): 3.2 ± 0.2 mol
moles of PPHP consumed per mole of DMMBI consumed (LPX [1]; [5]): 3.2 mol
equivalents of oxidant required ([2]; PBA or hydrogen peroxide, aqueous medium, products DMeBI+ and sulfate): 3 equivalents
moles of oxidant required for total reaction ([2]; PBA, FIG. 4): three
equivalents of hydroperoxide required per mole of thione ([2]; hydroperoxides): 3 equivalents
relative rate of oxygenation [3]: 1
Structure (SMILES): Cn1c(=S)n(C)c2ccccc21 [DMMBI, 1,3-dimethylbenzimidazole-2-thione]
conversion of DMMBI to DMeBI+ (LPX [1]; LPX, 3 equivalents H2O2 and iodide ion): quantitative conversion of DMMBI to DMeBI^+
conversion of DMMBI to DMeBI+ (LPX [1]; controls: no iodide ion, no LPX or no hydrogen peroxide): no conversion of DMMBI to DMeBI^+ was observed
selectivity for iodide ion oxidation (LPX and TPX; alternate substrate mechanism): block only reactions involving iodide ion oxidation
suicide inhibition (LPX and TPX; summary of own examples): not suicide inhibitors
LPX inactivation / loss of LPX activity (LPX [4]): does not inactivate LPX or TPX

From US5371102A, “Compositions and methods of inhibiting thyroid activity” (priority 1993, dated 1994)
